Test results taken from the supplement of paper PMC10307832.

What was measured:
Assay in all cases: relative viability (nuclei count vs DMSO), 5 days (fraction); higher = more cells survive
[1] = compound: CCN(CCO)CCCC(C)Nc1ccnc2cc(Cl)ccc12 [Hydroxychloroquine] + CC(=O)Nc1cccc(-n2c(=O)n(C3CC3)c(=O)c3c(Nc4ccc(I)cc4F)n(C)c(=O)c(C)c32)c1 [Trametinib] (partner 0.02 µM)
Procedure, shortened: (§1)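 Relative viability was taken as the ratio of nuclei in treated wells to nuclei in vehicle wells. Lung cancer cell lines in 1536-well plates received compounds by pin tool one day after seeding, either one drug alone or a fixed anchor-drug dose plus five library-drug doses (not always all listed) in √10 steps. Nuclei were counted on 4× images after 5 days of treatment, and values are medians of duplicate plates.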

[2] = compound: CCN(CCO)CCCC(C)Nc1ccnc2cc(Cl)ccc12 [Hydroxychloroquine] + COc1cccc2cc(-c3nc([C@H]4CC[C@H](C(=O)O)CC4)n4ncnc(N)c34)[nH]c12 [OSI-027] (partner 0.5 µM)
Procedure, shortened: as §1

[3] = compound: CCN(CCO)CCCC(C)Nc1ccnc2cc(Cl)ccc12 [Hydroxychloroquine] + CS(=O)(=O)CCNCc1ccc(-c2ccc3ncnc(Nc4ccc(OCc5cccc(F)c5)c(Cl)c4)c3c2)o1 [Lapatinib] (partner 2 µM)
Procedure, shortened: as §1

[4] = compound: CCN(CCO)CCCC(C)Nc1ccnc2cc(Cl)ccc12 [Hydroxychloroquine] + C[C@]1(O)C[C@@H](c2nc(-c3ccc4ccc(-c5ccccc5)nc4c3)c3c(N)nccn32)C1 [Linsitinib] (partner 1 µM)
Procedure, shortened: as §1

Row | Cell Line | relative viability ([1]; first compound 0.5 µM) | relative viability ([1]; first compound 1.581 µM) | relative viability ([1]; first compound 5 µM) | relative viability ([1]; first compound 15.81 µM) | relative viability ([1]; first compound 50 µM) | relative viability ([2]; first compound 0.5 µM) | relative viability ([2]; first compound 1.581 µM) | relative viability ([2]; first compound 5 µM) | relative viability ([2]; first compound 15.81 µM) | relative viability ([2]; first compound 50 µM) | relative viability ([3]; first compound 0.5 µM) | relative viability ([3]; first compound 1.581 µM) | relative viability ([3]; first compound 5 µM) | relative viability ([3]; first compound 15.81 µM) | relative viability ([3]; first compound 50 µM) | relative viability ([4]; first compound 0.5 µM) | relative viability ([4]; first compound 1.581 µM) | relative viability ([4]; first compound 5 µM) | relative viability ([4]; first compound 15.81 µM) | relative viability ([4]; first compound 50 µM)
1 | HCC-78 | 0.823 | 0.834 | 0.878 | 0.752 | 0.904 | 0.377 | 0.376 | 0.366 | 0.323 | 0.349 | 1.29 | 0.706 | 0.492 | 0.746 | 0.764 | 0.49 | 0.728 | 0.304 | 0.516 | 0.455
2 | HCC-366 | 0.334 | 0.323 | 0.355 | 0.282 | 0.458 | 0.896 | 0.932 | 0.673 | 0.862 | 1.05 | 0.968 | 1.06 | 1.02 | 1.15 | 1.19 | 0.573 | 0.769 | 0.613 | 0.627 | 0.796
3 | HCC-827 | 0.506 | 0.479 | 0.488 | 0.563 | 0.531 | 0.802 | 0.572 | 0.821 | 1.03 | 0.763 | 0.202 | 0.222 | 0.212 | 0.183 | 0.205 | 1.01 | 0.927 | 0.922 | 0.956 | 0.977
4 | HOP-62 | 0.37 | 0.387 | 0.386 | 0.397 | 0.341 | 0.877 | 0.892 | 0.843 | 0.825 | 0.767 | 1.07 | 0.889 | 1.1 | 0.98 | 1.04 | 0.95 | 0.873 | 1.15 | 0.868 | 0.987
5 | IA-LM | – | – | – | – | – | – | – | – | – | – | 0.863 | 1.09 | 0.862 | 0.869 | 0.795 | 0.569 | 0.281 | 0.66 | 0.383 | 0.695
6 | LC-2-ad | 0.925 | 0.98 | 0.941 | 0.865 | 0.924 | 0.953 | 0.793 | 0.853 | 0.805 | 0.868 | 0.977 | 0.958 | 0.979 | 0.999 | 1.02 | 0.92 | 0.782 | 0.93 | 0.863 | 0.818
7 | LCLC-97TM1 | 0.208 | 0.185 | 0.196 | 0.23 | 0.16 | 0.614 | 0.465 | 0.569 | 0.563 | 0.622 | 0.926 | 1.27 | 0.928 | 1.1 | 1.03 | 0.2 | 0.189 | 0.215 | 0.172 | 0.173
8 | LCLC-103H | 0.684 | 0.642 | 0.678 | 0.719 | 0.695 | 0.482 | 0.488 | 0.547 | 0.465 | 0.562 | – | – | – | – | – | 1.16 | 1.08 | 1.07 | 1.01 | 1.16
9 | LK-2 | 0.864 | 0.599 | 0.707 | 0.876 | 1.01 | 0.201 | 0.198 | 0.155 | 0.206 | 0.208 | 0.918 | 0.947 | 0.883 | 1.03 | 1.04 | 0.473 | 0.438 | 0.843 | 0.607 | 0.696
10 | LOU-NH91 | 0.795 | 0.69 | 0.799 | 0.828 | 0.848 | 0.667 | 0.616 | 0.758 | 0.701 | 0.736 | 0.759 | 0.591 | 0.776 | 0.754 | 0.738 | 0.907 | 0.811 | 0.981 | 0.937 | 0.946
11 | LU99A | 0.626 | 0.505 | 0.542 | 0.527 | 0.577 | 0.304 | 0.258 | 0.327 | 0.283 | 0.329 | 1.05 | 0.937 | 0.871 | 1.08 | 1.01 | 0.525 | 0.478 | 0.437 | 0.527 | 0.503
12 | LXF-289 | 0.659 | 0.689 | 0.674 | 0.72 | 0.759 | 0.78 | 0.77 | 0.751 | 0.781 | 0.792 | 0.868 | 0.906 | 0.911 | 0.848 | 0.891 | 0.986 | 0.985 | 0.992 | 0.995 | 1
13 | NCI-H441 | 0.467 | 0.39 | 0.386 | 0.349 | 0.462 | 0.749 | 0.443 | 0.579 | 0.669 | 0.584 | – | – | – | – | – | 0.561 | 0.497 | 0.627 | 0.664 | 0.699
14 | NCI-H522 | 0.674 | – | 0.915 | 0.65 | 0.805 | 0.718 | 0.671 | 0.712 | 0.684 | 0.682 | – | – | – | – | – | – | – | – | – | –
15 | NCI-H1299 | – | – | – | – | – | – | – | – | – | – | 0.965 | 0.914 | 0.903 | 0.919 | 0.936 | 1.03 | 0.633 | 1.03 | 0.973 | 1.06
16 | NCI-H1563 | – | – | – | – | – | 0.736 | 0.625 | 0.79 | 0.794 | 0.716 | 0.839 | 0.756 | 0.951 | 0.798 | 0.866 | 1.03 | 1.04 | 1.18 | 1.06 | 1.17
17 | NCI-H1648 | 0.499 | 0.434 | 0.437 | 0.57 | 0.414 | – | 0.283 | 0.273 | 0.254 | 0.274 | – | – | – | – | – | – | – | – | – | –
18 | NCI-H1650 | 0.556 | 0.681 | 0.515 | 0.591 | 0.494 | 0.653 | 0.729 | 0.634 | 0.562 | 0.577 | 0.844 | 0.697 | 0.702 | 0.75 | 0.765 | – | – | – | – | –
19 | NCI-H1703 | – | – | – | – | – | – | – | – | – | – | 0.959 | – | 1.05 | 1.29 | 0.763 | 0.601 | 0.418 | 0.8 | 0.614 | 1.09
20 | NCI-H2170 | 0.867 | 0.852 | 0.933 | 1.05 | 0.896 | 0.63 | 0.776 | 0.685 | 0.702 | 0.806 | 0.261 | 0.251 | 0.275 | 0.276 | 0.267 | – | – | – | – | –
21 | NCI-H2342 | 0.868 | 0.923 | 0.908 | 0.804 | 0.881 | 0.585 | 0.578 | 0.613 | 0.68 | 0.69 | – | – | – | – | – | – | – | – | – | –
